pIC50: −log10 of the molar value. Like-named read-outs stand apart in the source and are kept apart here.
Experiments:
[1] = tested on: NCI-H358 non-small cell lung cancer cells; assay: Inhibition of NCI-H358 cell proliferation (CellTiter-Glo 3D, 7 days); assay type: cell-based; conditions: Homo sapiens, NCI-H358, 168 h, 3D microspheres, read-out: Inhibitory activity against NCI-H358 cell proliferation (IC50)
Method in brief: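 NCI-H358 cells at 2000/well in ultra-low attachment plates grown overnight into spheroids, then exposed to 8-point 5-fold compound dilutions in RPMI-1640/10% FBS for 7 days at 37 °C. Viability by CellTiter-Glo 3D luminescence; inhibition relative to no-inhibitor and cell-free controls.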

CYP2C19 = biological target: T1, CYP2C19 (Homo sapiens, UniProt P33261); assay: Inhibition of hepatic drug-metabolizing enzymes in human liver microsomes; assay type: in vitro ADME; conditions: for IC50: human liver microsomes, read-out: Inhibitory activity on drug-metabolizing enzymes (IC50, µM) CYP2C19
T1 construct: human liver microsomes were used as the CYP450 enzyme source; from tissue; host or cells: human liver microsomes
Text: (§1) The main site of drug metabolism is the liver, and the main component of the mixed-function oxidase system present in the liver is the CYP450 enzyme. This enzyme system causes most clinically observed drug-drug interactions, which in turn leads to an increased incidence of adverse drug reactions. CYP450 is a group of supergene family composed of many isozymes, wherein CYP3A4 acts as a major metabolizing enzyme and is involved in the metabolism of nearly half of clinically used drugs. Similarly, CYP2C9 and CYP2C19 also act as important metabolizing enzymes and are involved in the metabolism of various drugs clinically. Therefore, evaluating the risk of drug-drug interactions by testing the inhibitory activity of compounds on CYP450 enzymes at an early stage can improve the safety of medication use.
(§2) In the present disclosure, human liver microsomes were used as the CYP450 enzyme source. The specific probe substrates for each CYP isoenzyme (wherein CYP3A4 used two substrates, midazolam and testosterone, denoted as CYP3A4-M and CYP3A4-T respectively) were incubated with a series of concentrations of the test compound in the presence of the cofactor NADPH. The production amount of metabolites of probe substrates in the incubation system was determined by LC-MS/MS, and the IC50 values of the test compound against each CYP450 enzyme subtype were calculated to evaluate its inhibitory effect on each CYP450 enzyme subtype. During the experiment, 49 µL of PBS, 50 µL of probe substrate, and 50 µL of human liver microsome working solution were sequentially added to the incubation system, followed by the addition of 1 µL of the test compound working solution at each concentration, and the mixture was mixed well. After pre-incubation at 37°C for 5 min, 50 µL of NADPH was added to initiate the reaction. After incubation for the corresponding time, an appropriate amount of ice-cold acetonitrile containing an internal standard was added to terminate the reaction. The mixture was vortexed to mix well, centrifuged, and the supernatant was taken. The supernatant was injected into LC-MS/MS to determine the production amount of metabolites of the probe substrate. Taking the enzyme activity at the 0-concentration point (characterized by the production amount of metabolites) as 100%, the percentage of residual enzyme activity of metabolites at different concentrations of the test compound was calculated. IC50 was calculated by the residual enzyme activity using Graphpad Prism software.

CYP2C9 = biological target: T2, CYP2C9 (Homo sapiens, UniProt P11712); assay: as above; assay type: in vitro ADME; conditions: for IC50: human liver microsomes, read-out: Inhibitory activity on drug-metabolizing enzymes (IC50, µM) CYP2C9
T2 construct: human liver microsomes were used as the CYP450 enzyme source; from tissue; host or cells: human liver microsomes
Text: as §1, §2

CYP3A4 = biological target: T3, CYP3A4 (Homo sapiens, UniProt P08684); assay: Inhibition of hepatic drug-metabolizing enzymes in human liver microsomes (substrates midazolam and testosterone); assay type: in vitro ADME
T3 construct: human liver microsomes were used as the CYP450 enzyme source; from tissue; host or cells: human liver microsomes
Text: as §1, §2

[2] = substrate midazolam, read-out: Inhibitory activity on drug-metabolizing enzymes (IC50, µM) CYP3A4-M
[3] = substrate testosterone, read-out: Inhibitory activity on drug-metabolizing enzymes (IC50, µM) CYP3A4-T

T2 sequence (P11712 whole entry): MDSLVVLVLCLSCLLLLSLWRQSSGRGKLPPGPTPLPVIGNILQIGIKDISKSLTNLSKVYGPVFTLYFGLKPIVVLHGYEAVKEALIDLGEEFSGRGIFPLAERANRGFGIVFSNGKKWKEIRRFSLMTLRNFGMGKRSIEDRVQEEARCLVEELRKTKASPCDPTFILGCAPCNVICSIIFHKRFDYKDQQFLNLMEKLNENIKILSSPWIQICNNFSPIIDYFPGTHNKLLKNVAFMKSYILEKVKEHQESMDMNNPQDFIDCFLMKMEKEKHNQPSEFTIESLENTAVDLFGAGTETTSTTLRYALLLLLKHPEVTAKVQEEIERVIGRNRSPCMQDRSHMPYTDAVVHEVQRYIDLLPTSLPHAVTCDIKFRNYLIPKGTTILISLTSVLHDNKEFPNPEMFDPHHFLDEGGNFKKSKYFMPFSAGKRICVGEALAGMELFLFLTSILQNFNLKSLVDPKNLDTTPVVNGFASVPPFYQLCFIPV
T3 sequence (P08684 whole entry): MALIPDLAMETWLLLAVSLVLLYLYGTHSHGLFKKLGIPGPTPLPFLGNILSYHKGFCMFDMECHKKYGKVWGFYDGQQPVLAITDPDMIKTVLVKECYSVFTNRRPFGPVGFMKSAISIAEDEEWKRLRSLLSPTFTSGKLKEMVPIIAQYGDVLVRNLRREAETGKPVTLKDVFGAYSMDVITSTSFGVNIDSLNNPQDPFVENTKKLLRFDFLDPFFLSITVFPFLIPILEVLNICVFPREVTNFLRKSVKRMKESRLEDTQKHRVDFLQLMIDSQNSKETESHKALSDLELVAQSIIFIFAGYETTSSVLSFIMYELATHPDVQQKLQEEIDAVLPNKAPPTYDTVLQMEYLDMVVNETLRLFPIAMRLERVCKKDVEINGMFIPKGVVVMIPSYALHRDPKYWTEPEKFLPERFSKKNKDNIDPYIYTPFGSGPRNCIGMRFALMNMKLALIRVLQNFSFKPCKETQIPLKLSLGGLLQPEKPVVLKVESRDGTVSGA
T1 sequence (P33261 whole entry): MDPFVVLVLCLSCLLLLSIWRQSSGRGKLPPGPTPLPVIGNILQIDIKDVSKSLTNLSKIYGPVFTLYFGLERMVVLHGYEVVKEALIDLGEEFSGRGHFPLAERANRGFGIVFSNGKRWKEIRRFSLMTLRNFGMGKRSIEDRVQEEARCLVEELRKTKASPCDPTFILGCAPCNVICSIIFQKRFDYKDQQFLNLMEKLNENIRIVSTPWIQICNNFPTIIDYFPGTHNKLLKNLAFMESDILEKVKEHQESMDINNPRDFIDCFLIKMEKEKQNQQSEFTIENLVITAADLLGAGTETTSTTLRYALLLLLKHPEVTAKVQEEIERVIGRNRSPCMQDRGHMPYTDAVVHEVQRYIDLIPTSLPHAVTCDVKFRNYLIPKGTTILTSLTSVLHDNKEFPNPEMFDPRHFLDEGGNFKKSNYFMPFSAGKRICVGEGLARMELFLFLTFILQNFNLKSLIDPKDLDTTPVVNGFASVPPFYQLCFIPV

C[C@@H](Nc1nnc(N2CCN(C)CC2)c2cc(=O)n(C3CC3)cc12)c1cccc(C(F)F)c1F [Example 77]
pIC50 [1]: 7.40
pIC50 (CYP2C19): < 5.00
pIC50 (CYP2C9): < 5.00
IC50 (CYP3A4; Inhibitory activity on drug-metabolizing enzymes (IC50, µM) CYP3A4-M, substrate midazolam): 7.81 µM
IC50 (CYP3A4; Inhibitory activity on drug-metabolizing enzymes (IC50, µM) CYP3A4-T, substrate testosterone): > 10 µM

CCN1CCN(c2nnc(N[C@H](C)c3cccc(C(F)F)c3F)c3cn(C4CCC4)c(=O)cc23)CC1 [Example 112, (R)-6-cyclobutyl-4-((1-(3-(difluoromethyl)-2-fluorophenyl)ethyl)amino)-1-(4-ethylpiperazin-1-yl)pyrido[3,4-d]pyridazin-7(6H)-one]
pIC50 [1]: 7.69
IC50 (CYP2C19): > 10 µM
IC50 (CYP2C9): > 10 µM
IC50 (CYP3A4; [2]): > 10 µM
IC50 (CYP3A4; [3]): > 10 µM

C[C@@H](Nc1nnc(N2CCN(C3CCCC3)CC2)c2cc(=O)n(N3CCOCC3)cc12)c1cccc(C(F)F)c1F [Example 120, (R)-4-((1-(3-(difluoromethyl)-2-fluorophenyl)ethyl)amino)-1-(4-cyclopentylpiperazin-1-yl)-6-morpholinopyrido[3 ,4-d]pyridazin-7(6H)-one]
pIC50 [1]: 7.60
IC50 (CYP2C19): > 10 µM
IC50 (CYP2C9): > 10 µM
IC50 (CYP3A4; [2]): > 10 µM
IC50 (CYP3A4; [3]): > 10 µM

C[C@@H](Nc1nnc(N2CCN(C)CC2)c2cc(=O)n(C3CCC3)cc12)c1cccc(C(F)F)c1F [Example 88, (R)-6-cyclobutyl-4-((1-(3-(difluoromethyl)-2-fluorophenyl)ethyl)amino)-1-(4-methylpiperazin-1-yl)pyrido[3,4-d]pyridazin-7(6H)-one]
pIC50 [1]: 7.64
IC50 (CYP2C19): > 10 µM
IC50 (CYP2C9): > 10 µM
IC50 (CYP3A4; [2]): > 10 µM
IC50 (CYP3A4; [3]): > 10 µM

C[C@@H](Nc1nnc(N2CCN(C(C)(C)C)CC2)c2cc(=O)n(C3(C)CC3)cc12)c1cccc(C(F)F)c1F.O=CO [Example 222, (R)-1-(4-(tert-butyl)piperazin-1-yl)-4-((1-(3-(difluoromethyl)-2-fluorophenyl)ethyl)amino)-6-(1-methylcyclopropyl) pyrido[3,4-d]pyridazin-7(6H)-one formate]
pIC50 [1]: 7.48
IC50 (CYP2C19): > 10 µM
IC50 (CYP2C9): > 10 µM
IC50 (CYP3A4; [2]): > 10 µM
IC50 (CYP3A4; [3]): > 10 µM

CNc1nnc(N[C@H](C)c2cccc(C(F)(F)F)c2C)c2cn(C3(C)CC3)c(=O)cc12 [Example 73, (R)-4-((1-(2-methyl-3-(trifluoromethyl)phenyl)ethyl)amino)-1-(methylamino)-6-(1-methylcyclopropyl) pyrido[3,4-d]pyridazin-7(6H)-one]
pIC50 [1]: 7.83
IC50 (CYP2C19): > 10 µM
IC50 (CYP2C9): > 10 µM
IC50 (CYP3A4; [2]): > 10 µM
IC50 (CYP3A4; [3]): > 10 µM

C[C@@H](Nc1nnc(N2CCN(C)CC2)c2cc(=O)n(N3CCOCC3)cc12)c1cccc(C(F)F)c1F [Example 110, (R)-4-((1-(3-(difluoromethyl)-2-fluorophenyl)ethyl)amino)-1-(4-methylpiperazin-1-yl)-6-morpholinopyrido[3 ,4-d]pyridazin-7(6H)-one]
pIC50 [1]: 8.02
IC50 (CYP2C19): > 10 µM
IC50 (CYP2C9): > 10 µM
IC50 (CYP3A4; [2]): > 10 µM
IC50 (CYP3A4; [3]): > 10 µM

CCN1CCN(c2nnc(N[C@H](C)c3cccc(C(F)F)c3F)c3cn(N4CCOCC4)c(=O)cc23)CC1 [Example 109, (R)-4-((1-(3-(difluoromethyl)-2-fluorophenyl)ethyl)amino)-1-(4-ethylpiperazin-1-yl)-6-morpholinopyrido[3 ,4-d]pyridazin-7(6H)-one]
pIC50 [1]: 7.78
IC50 (CYP2C19): > 10 µM
IC50 (CYP2C9): > 10 µM
IC50 (CYP3A4; [2]): > 10 µM
IC50 (CYP3A4; [3]): > 10 µM

CCN1CCN(c2nnc(N[C@H](C)c3cccc(C(F)F)c3F)c3cn(C4CC(F)(F)C4)c(=O)cc23)CC1 [Example 98, (R)-6-(3,3-difluorocyclobutyl)-4-((1-(3-(difluoromethyl)-2-fluorophenyl)ethyl)amino)-1-(4-ethylpiperazin-1-yl)pyrido[3,4-d]pyridazin-7(6H)-one]
pIC50 [1]: 7.42
IC50 (CYP2C19): > 10 µM
IC50 (CYP2C9): > 10 µM
IC50 (CYP3A4; [2]): > 10 µM
IC50 (CYP3A4; [3]): > 10 µM

C[C@@H](Nc1nnc(N2CCN(C)CC2)c2cc(=O)n(C3(C)CC3)cc12)c1cccc(C(F)F)c1F.O=CO [Example 80, (R)-4-((1-(3-(difluoromethyl)-2-fluorophenyl)ethyl)amino)-6-(1-methylcyclopropyl)-1-(4-methylpiperazin-1-yl)pyrido[3,4-d]pyridazin-7(6H)-one formate]
pIC50 [1]: 7.68
IC50 (CYP2C19): > 10 µM
IC50 (CYP2C9): > 10 µM
IC50 (CYP3A4; [2]): > 10 µM
IC50 (CYP3A4; [3]): > 10 µM

CCN1CCN(c2nnc(N[C@H](C)c3cccc(C(F)F)c3F)c3cn(C4(C)CC4)c(=O)cc23)CC1 [Example 216, (R)-4-((1-(3-(difluoromethyl)-2-fluorophenyl)ethyl)amino)-1-(4-ethylpiperazin-1-yl)-6-(1-methylcyclopropyl) pyrido[3,4-d]pyridazin-7(6H)-one]
pIC50 [1]: 7.44
IC50 (CYP2C19): > 10 µM
IC50 (CYP2C9): > 10 µM
IC50 (CYP3A4; [2]): > 10 µM
IC50 (CYP3A4; [3]): > 10 µM

CNc1nnc(N[C@H](C)c2cccc(C(F)F)c2F)c2cn(C3(C)CC3)c(=O)cc12.O=CO [Example 9, (R)-4-((1-(3-(difluoromethyl)-2-fluorophenyl)ethyl)amino)-1-(methylamino)-6-(1-methylcyclopropyl) pyrido[3,4-d]pyridazin-7(6H)-one formate]
pIC50 [1]: 7.37
IC50 (CYP2C19): > 10 µM
IC50 (CYP2C9): > 10 µM
IC50 (CYP3A4; [2]): > 10 µM
IC50 (CYP3A4; [3]): > 10 µM

CC(C)Nc1nnc(N[C@H](C)c2cccc(C(F)F)c2F)c2cn(C3(C)CC3)c(=O)cc12.O=CO [Example 12, (R)-4-((1-(3-(difluoromethyl)-2-fluorophenyl)ethyl)amino)-1-(isopropylamino)-6-(1-methylcyclopropyl) pyrido[3,4-d]pyridazin-7(6H)-one formate]
pIC50 [1]: 7.44
IC50 (CYP2C19): > 10 µM
IC50 (CYP2C9): > 10 µM
IC50 (CYP3A4; [2]): > 10 µM
IC50 (CYP3A4; [3]): > 10 µM

CNc1nnc(N[C@H](C)c2cccc(C(F)(F)F)c2C)c2cn(C3CC3)c(=O)cc12 [Example 52, (R)-6-cyclopropyl-4-((1-(2-methyl-3-(trifluoromethyl)phenyl)ethyl)amino)-1-(methylamino)pyrid o[3,4-d]pyridazin-7(6H)-one]
pIC50 [1]: 7.21
IC50 (CYP2C19): > 10 µM
IC50 (CYP2C9): > 10 µM
IC50 (CYP3A4; [2]): > 10 µM
IC50 (CYP3A4; [3]): > 10 µM

CC(C)N1CCN(c2nnc(N[C@H](C)c3cccc(C(F)F)c3F)c3cn(C4(C)CC4)c(=O)cc23)CC1 [Example 217, (R)-4-((1-(3-(difluoromethyl)-2-fluorophenyl)ethyl)amino)-1-(4-isopropylpiperazin-1-yl)-6-(1-methylcyclopropyl) pyrido[3,4-d]pyridazin-7(6H)-one]
pIC50 [1]: 7.33
IC50 (CYP2C19): > 10 µM
IC50 (CYP2C9): > 10 µM
IC50 (CYP3A4; [2]): > 10 µM
IC50 (CYP3A4; [3]): > 10 µM

CC(C)N1CCN(c2nnc(N[C@H](C)c3cccc(C(F)F)c3F)c3cn(N4CCOCC4)c(=O)cc23)CC1 [Example 111, (R)-4-((1-(3-(difluoromethyl)-2-fluorophenyl)ethyl)amino)-1-(4-isopropylpiperazin-1-yl)-6-morpholinopyrido[3 ,4-d]pyridazin-7(6H)-one]
pIC50 [1]: 7.84
IC50 (CYP2C19): > 10 µM
IC50 (CYP2C9): > 10 µM
IC50 (CYP3A4; [2]): > 10 µM
IC50 (CYP3A4; [3]): > 10 µM
